Measurements published in patent US6787552B2, “PPAR delta activators” (Nippon Chemiphar Co., Ltd., priority 2000, dated 2004).
“And” between values parts separate entries of the source, which are not always exact repeats. Identical values can stand only once.

Key:
Type in all cases: cell-based
[1] = target: T1, PPARγ (Homo sapiens, UniProt P37231); experiment: PPARγ transactivation activity (GAL4-hPPARγ LBD / UASx4-TK-LUC reporter in CV-1 cells); conditions: for PPARγ transactivation activity: a relative value (control = 100%): compound at 10^−5 M, CV-1 cells, Table 25; for Emax: CV-1, in the manner as described in Example 9, Table 26, read-out: PPARγ (PPAR activating power)
T1 construct: Receptor expression plasmid (GAL4-hPPARα, LBD GAL4-hPPARγ LBD, GAL4-hPPARδ LBD); expressed in transfected cells; host or cells: CV-1 cells
T1 sequence (P37231 238-503 limits assumed): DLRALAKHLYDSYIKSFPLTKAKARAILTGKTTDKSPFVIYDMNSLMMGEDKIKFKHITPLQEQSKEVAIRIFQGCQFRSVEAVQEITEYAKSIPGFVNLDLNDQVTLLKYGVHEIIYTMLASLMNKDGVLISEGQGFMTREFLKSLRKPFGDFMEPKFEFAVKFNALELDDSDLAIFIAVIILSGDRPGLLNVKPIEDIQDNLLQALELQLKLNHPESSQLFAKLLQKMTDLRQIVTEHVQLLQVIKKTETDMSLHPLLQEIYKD
Method: In the same manner, relative ligand activities to PPARδ and γ transactivation activitis are calculated (see the below-mentioned Example 9).
(§1) (1) Measurement of PPARα,γ,δ Transactivation Activity
(§2) PPARα,γ,δ transactivation activity of each compound [Examples 1-6 and known PPARδ agonist (L-16504: Berger, J., et al. (1999), J. Biol. Chem., 274:6718-6725)] was measured in the manner described below.
(§3) CV-1 was obtained from Tohoku University Aging Medical Laboratory, Medical Cell Collection Center. All test compounds were dissolved in dimethylsulfoxide (DMSO) to give a test sample of 0.1% concentration.
(§4) Receptor expression plasmid (GAL4-hPPARα, LBD GAL4-hPPARγ LBD, GAL4-hPPARδ LBD), Reporter plasmid (UASx4-TK-LUC), and β-galactosidase expression plasmid (βGAL) similar to Kliewer, S. A., et al., ((1992) Nature, 358:771-774) were employed.
(§5) CV-1 cells were seeded in 24 well culture plates at 2×10^5 cells per well, and cultured for 24 hours using 4%-fetal bovine serum(FBS)-added OPTI-MEM I Reduced Serum Medium (Life Technologies, 500 μL/well). Subsequently, the cells were washed with non serum-added OPTI-MEM. To the washed cells were added DNA-containing solution [the following components were contained in the one well solution (250 μl): 0.03 μg of GAL4-hPPARδ LBD, 0.25 μg of UASx4-TK-LUC, 0.35 μg of βGAL, and 2 μL of lipofection reagent, DMRIE-C (Life Technologies). These components were dissolved in OPTI-MEM and allowed to stand for 30 minutes at room temperature]. The cells were incubated for 5 hours at 37° C.
(§6) The cells were then incubated for 40 hours in 500 μL of fresh OPTI-MEM containing 4% FBS and the test compound (dissolved in 100% DMSO to reach a final concentration: 10^−4M or 10^−5M).
(§7) The culture medium was removed and the cells were washed with PBS twice. Cell lysates were produced using a solubilizing buffer (25 mM Tris-PO4 (pH 7.8), 15%v/v glycerol, 2% CHAPS, 1% Lecithin, 1% BSA, 4 mM EGTA (pH 8.0), 8 mM MgCl2, 1 mM DTT). A portion (20 μL) of the solution was transferred onto a 96-well plate. Subsequently, 100 μL of luciferase substrate solution (Piccagene: available from Nippon Gene Co., Ltd.) was added, and a luminous intensity per one sec. (luciferase activity) was measured by means of MLR-100 type Microluminoreader (available from Corona Electrics Co., Ltd.). Further, the activity caused by […] incorporation which was incorporated into the cells simultaneously with the incorporation of the luciferase gene was measured, for correcting variation of luciferase activity by the addition of the compound, utilizing the transfection efficiency of the incorporated gene. β-Galactosidase activity was measured by the following method: 50 μL of the solubilized sample was placed on another 96-well plate; 10 μL of ONPG (2-nitrophenyl-β-galactopyranoside) solution was added; incubation was carried out for 5 minutes at room temperature; 50 μL of a reaction stopping solution (1M sodium carbonate solution) was added; and the absorbance at 414 nm was measured.

[2] = target: T2, PPARα (Homo sapiens, UniProt Q07869); experiment: PPARα transactivation activity (GAL4-hPPARα LBD / UASx4-TK-LUC reporter in CV-1 cells); conditions: for PPARα transactivation activity: a relative value (control = 100%): CV-1 cells, Table 25; for Emax: CV-1, in the manner as described in Example 9, Table 26, read-out: PPARα (PPAR activating power)
T2 construct: Receptor expression plasmid (GAL4-hPPARα, LBD GAL4-hPPARγ LBD, GAL4-hPPARδ LBD); expressed in transfected cells; host or cells: CV-1 cells
T2 sequence (Q07869 239-466 limits assumed): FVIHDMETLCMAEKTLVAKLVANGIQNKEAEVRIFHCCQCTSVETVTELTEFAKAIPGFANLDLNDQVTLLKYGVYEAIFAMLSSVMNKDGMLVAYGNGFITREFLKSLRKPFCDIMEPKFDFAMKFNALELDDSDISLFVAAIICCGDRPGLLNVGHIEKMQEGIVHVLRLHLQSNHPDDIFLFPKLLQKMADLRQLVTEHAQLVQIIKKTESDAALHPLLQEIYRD
Method: as §1, §2, §3, §4, §5, §6, §7

[3] = target: T3, PPARδ (Homo sapiens, UniProt Q03181); experiment: PPARδ transactivation activity (GAL4-hPPARδ LBD / UASx4-TK-LUC reporter in CV-1 cells); conditions: for activity to PPARδ relative to activity to PPARα and γ (selectivity) / PPARδ transactivation activity: a relative value (control = 100%): CV-1 cells; for activity to PPARδ relative to activity to PPARα and γ (selectivity): GAL4-hPPAR LBD reporter, relative activities vs control reagents; for PPARδ transactivation activity: a relative value (control = 100%): compound at 10^−5 M, Table 25; for Emax: CV-1, 40 h, in the manner as described in Example 9, Table 26, read-out: PPARδ (PPAR activating power)
T3 construct: A chimeric receptor expression plasmid (GAL4-hPPARδ LBD); expressed in transfected cells; host or cells: CV-1 cells
T3 sequence (Q03181 211-439 limits assumed): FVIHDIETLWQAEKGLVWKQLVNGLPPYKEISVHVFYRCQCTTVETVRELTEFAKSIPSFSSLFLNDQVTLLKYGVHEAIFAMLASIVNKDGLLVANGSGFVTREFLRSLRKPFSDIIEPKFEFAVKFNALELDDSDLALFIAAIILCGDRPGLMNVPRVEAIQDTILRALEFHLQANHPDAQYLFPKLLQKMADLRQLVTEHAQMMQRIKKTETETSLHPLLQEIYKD
Method: A chimeric receptor expression plasmid (GAL4-hPPARδ LBD), a reporter plasmid (UASx4-TK-LUC) and β-galactosidase (β-GAL) are transfected into CV-1 cells by utilizing a lipofection reagent DMRIE-C (Life Technologies).
as §1
CV-1 was obtained from Tohoku University Aging Medical Laboratory, Medical Cell Collection Center.
as §5, §6, §7

| SMILES | PPARγ transactivation activity: a relative value (control = 100%) [1] | PPARα transactivation activity: a relative value (control = 100%) ([2]; compound at 10^−5 M) | activity to PPARδ relative to activity to PPARα and γ (selectivity) [3] | PPARδ transactivation activity: a relative value (control = 100%) [3] | Emax [1] | Emax [2] | Emax [3] | PPARα transactivation activity: a relative value at 10^−5 M (control = 100%) ([2]; compound at 10^−5 M, control WY-14643 (10^−4M), Table 27) |
| --- | --- | --- | --- | --- | --- | --- | --- | --- |
| CC(C)c1oc(-c2ccccc2Cl)nc1CCC(=O)c1ccc(OC(C)(C)C(=O)O)cc1 [Example 1, 2-[4-[3-[2-(2-Chlorophenyl)-5-isopropyl-4-oxazolyl]propionyl]phenyloxy]-2-methylpropionic acid] | 27 ± 3% | 9 ± 1% | selectively higher | 80 ± 10% |  |  |  |  |
| CC(C)c1oc(-c2ccccc2Cl)nc1CCC(=NO)c1ccc(OC(C)(C)C(=O)O)cc1 [Example 3, 2-[4-[3-[2-(2-Chlorophenyl)-5-isopropyl-4-oxazolyl](1-hydroxyimino)propyl]phenyloxy]-2-methyl-propionic acid] | 16% | 10% |  | 19% |  |  |  |  |
| CC(C)c1oc(-c2cc3ccccc3cc2O)nc1CCC(=O)c1ccc(OC(C)(C)C(=O)O)cc1 [Example 7-11, 2-[4-[3-[2-(3-Hydroxy-2-naphthyl)-5-isopropyl-4-oxazolyl]propionyl]phenyloxy]-2-methylpropionic acid] |  |  |  |  | 18 ± 4% | 29 ± 3% | 85 ± 1% |  |
| CC(C)c1oc(-c2ccc(Cl)cc2Cl)nc1CC=Cc1ccc(OC(C)(C)C(=O)O)cc1 [Example 7-10, 2-[4-[3-[2-(2,4-Dichlorophenyl)-5-isopropyl-4-oxazolyl]-1-propenyl]phenyloxy]-2-methylpropionic acid] |  |  |  |  | 1% | 3% | 70% |  |
| CC(C)c1oc(-c2cccc(Cl)c2O)nc1CCC(=O)c1ccc(OC(C)(C)C(=O)O)cc1 [Example 7-12, 2-[4-[3-[2-(3-Chloro-2-hydroxyphenyl)-5-isopropyl-4-oxazolyl]propionyl]phenyloxy]-2-methylpropionic acid] |  |  | selectively higher |  | 4% | 8 ± 1% | 79 ± 2% |  |
| CC(C)c1oc(-c2ccc(-c3ccccc3)cc2)nc1CCC(=O)c1ccc(OC(C)(C)C(=O)O)cc1 [Example 7-8, 2-[4-[3-[2-(4-Biphenylyl)-5-isopropyl-4-oxazolyl]-propionyl]phenyloxy]-2-methylpropionic acid] |  |  |  |  | 26% | 1% | 58% |  |
| CCCc1c(OCCCOc2ccc(OCC(=O)O)cc2)ccc(C(C)=O)c1O [Example L-165041, reference compound] |  |  |  |  | 1 ± 0.03% | 2 ± 1% |  |  |
| CC(C)c1oc(-c2ccccc2Cl)nc1CCCc1ccc(OC(C)(C)C(=O)O)cc1 [Example 6, 2-[4-[3-[2-(2-Chlorophenyl)-5-isopropyl-4-oxazolyl]propyl]phenyloxy]-2-methylpropionic acid] | 93 ± 1% | 98 ± 6% |  | 109 ± 10% |  |  |  |  |
| CC(C)c1oc(-c2ccccc2Cl)nc1CC=Cc1ccc(OC(C)(C)C(=O)O)cc1 [Example 5, 2-[4-[3-[2-(2-Chlorophenyl)-5-isopropyl-4-oxazolyl]-1-propenyl]phenyloxy]-2-methylpropionic acid] | 36 ± 3% | 52 ± 7% | selectively higher | 114 ± 1% |  |  |  |  |
| Cc1nc(-c2ccc(C(F)(F)F)cc2)sc1CCC(=O)c1ccc(OC(C)(C)C(=O)O)cc1 [Example 8-1, 2-[4-[3-[2-[(4-Trifluoromethyl)phenyl]-4-methyl-5-thiazolyl]propionyl]phenyloxy]-2-methylpropionic acid] |  |  |  |  |  |  |  | 129% and 126% and 120% and 166% |
